Measured values reported in ChEMBL document CHEMBL3779790, “Novel Imbricatolic acid derivatives as protein tyrosine phosphatase-1B inhibitors: Design, synthesis, biological evaluation and molecular docking” (Bioorg Med Chem Lett, 2016).

What was measured:
[1] = target: T1, Tyrosine-protein phosphatase non-receptor type 1 (Homo sapiens) (UniProt P18031); assay: Inhibition of human recombinant PTP-1B using IR5 insulin receptor residues as substrate at 100 uM after 30 mins by malachite green assay
T1 sequence (whole entry): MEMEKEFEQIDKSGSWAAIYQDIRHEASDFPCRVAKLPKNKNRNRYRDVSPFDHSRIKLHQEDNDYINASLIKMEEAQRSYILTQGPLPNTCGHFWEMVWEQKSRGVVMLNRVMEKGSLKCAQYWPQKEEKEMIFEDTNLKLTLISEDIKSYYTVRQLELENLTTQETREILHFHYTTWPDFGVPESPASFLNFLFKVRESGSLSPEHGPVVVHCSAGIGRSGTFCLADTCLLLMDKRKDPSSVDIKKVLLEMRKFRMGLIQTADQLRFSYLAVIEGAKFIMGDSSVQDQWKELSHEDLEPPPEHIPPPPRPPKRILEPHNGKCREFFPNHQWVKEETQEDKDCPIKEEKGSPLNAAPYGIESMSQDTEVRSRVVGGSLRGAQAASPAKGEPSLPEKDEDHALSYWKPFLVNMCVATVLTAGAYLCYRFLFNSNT

[2] = target: T1, Tyrosine-protein phosphatase non-receptor type 1 (Homo sapiens); assay: Inhibition of human recombinant PTP-1B using IR5 insulin receptor residues as substrate at 1 uM after 30 mins by malachite green assay
[3] = target: T1, Tyrosine-protein phosphatase non-receptor type 1 (Homo sapiens); assay: Inhibition of human recombinant PTP-1B using IR5 insulin receptor residues as substrate at 30 uM after 30 mins by malachite green assay
[4] = target: T1, Tyrosine-protein phosphatase non-receptor type 1 (Homo sapiens); assay: Inhibition of human recombinant PTP-1B using IR5 insulin receptor residues as substrate at 10 uM after 30 mins by malachite green assay
[5] = target: T1, Tyrosine-protein phosphatase non-receptor type 1 (Homo sapiens); assay: Inhibition of human recombinant PTP-1B using IR5 insulin receptor residues as substrate at 5 uM after 30 mins by malachite green assay
[6] = target: T2, Tyrosine-protein phosphatase non-receptor type 1 (Homo sapiens, UniProt P18031); assay: Inhibition of human recombinant PTP-1B using IR5 insulin receptor residues as substrate after 30 mins by malachite green assay
T2 sequence (P18031 whole entry): T1 sequence (whole entry)

C=C1CC[C@@H]2[C@](C)(CCC[C@]2(C)NC(N)=O)[C@H]1CC[C@H](C)CNC(N)=O
inhibition [1]: 79.2% | inhibition [2]: 9.3% | inhibition [3]: 67.2% | inhibition [4]: 65.8% | inhibition [5]: 37.3% | IC50 [6]: 6.8 µM

C=C1CC[C@@H]2[C@](C)(CCC[C@]2(C)C(=O)OCC)[C@H]1CC[C@H](C)CCO
inhibition [4]: 23.1%

C=C1CC[C@@H]2[C@](C)(CCC[C@]2(C)N=C=O)[C@H]1CC[C@H](C)C/C=N/OC(C)=O
inhibition [4]: 44.8%

C=C1CC[C@H]2[C@@](C)(CO)CCC[C@]2(C)[C@H]1CC[C@H](C)CCO
inhibition [4]: 29.5%

C=C1CC[C@@H]2[C@](C)(CCC[C@]2(C)N=C=O)[C@H]1CC[C@H](C)CN=C=O
inhibition [4]: 45.7%

C=C1CC[C@@H]2[C@](C)(CCC[C@]2(C)C(=O)O)[C@H]1CC[C@H](C)C/C=N/O
inhibition [4]: 40.1%

C=C1CC[C@@H]2[C@](C)(CCC[C@]2(C)C(=O)O)[C@H]1CC[C@H](C)C/C=N/OC(C)=O
inhibition [4]: 43.5%

C=C1CC[C@@H]2[C@](C)(CCC[C@]2(C)NC(N)=O)[C@H]1CC[C@H](C)C/C=N/OC(C)=O
inhibition [1]: 82.2% | inhibition [2]: 11.2% | inhibition [3]: 79.1% | inhibition [4]: 65.3% | inhibition [5]: 31.7% | IC50 [6]: 7 µM

C=C1CC[C@H]2[C@@](C)(COC(C)=O)CCC[C@]2(C)[C@H]1CC[C@H](C)CCOC(C)=O
inhibition [4]: 34.2%

C=C1CC[C@@H]2[C@](C)(CCC[C@]2(C)C(=O)O)[C@H]1CC[C@H](C)CC(=O)O
inhibition [4]: 35.6%

C=C1CC[C@@H]2[C@](C)(CCC[C@]2(C)NC(N)=O)[C@H]1CC[C@H](C)CCO
inhibition [1]: 87.2% | inhibition [2]: 8.2% | inhibition [3]: 79.2% | inhibition [4]: 61.5% | inhibition [5]: 25.9% | IC50 [6]: 6.3 µM

C=C1CC[C@@H]2[C@](C)(CCC[C@]2(C)NC(N)=O)[C@H]1CC[C@H](C)C/C=N/O
inhibition [1]: 69.2% | inhibition [2]: 7.1% | inhibition [3]: 63.2% | inhibition [4]: 59.9% | inhibition [5]: 38.2% | IC50 [6]: 7.8 µM

Cc1ccc(C(=O)Nc2ccc(S(=O)(=O)O)c3cc(S(=O)(=O)O)cc(S(=O)(=O)O)c23)cc1NC(=O)c1cccc(NC(=O)Nc2cccc(C(=O)Nc3cc(C(=O)Nc4ccc(S(=O)(=O)O)c5cc(S(=O)(=O)O)cc(S(=O)(=O)O)c45)ccc3C)c2)c1
inhibition [4]: 64.3%

C=C1CC[C@@H]2[C@](C)(CCC[C@]2(C)C(=O)O)[C@H]1CC[C@H](C)CCO [IMBRICATOLIC ACID]
inhibition [1]: 71.1% | inhibition [2]: 5.9% | inhibition [3]: 67.2% | inhibition [4]: 59.2% | inhibition [5]: 19.2% | IC50 [6]: 8.8 µM

C=C1CC[C@@H]2[C@](C)(CCC[C@]2(C)N=C=O)[C@H]1CC[C@H](C)CCO
inhibition [4]: 41.3%

C=C1CC[C@@H]2[C@](C)(CCC[C@]2(C)C(=O)O)[C@H]1CC[C@H](C)CC=O
inhibition [4]: 19.9%
